Columns and labels:
[1] = system: primary cells from kidney tissues of human ADPKD patients; assay: Inhibition of three-dimensional cyst formation using primary cells from kidney tissue of human ADPKD patient; assay type: cell-based; conditions: 168 h, test compound 30 μM, forskolin + ITS stimulation, 7 days 3D culture, average N=3, read-out: Inhibition rate (%) of cyst formation
Protocol: Primary cells were isolated from kidney tissues of human ADPKD patients. Under two-dimensions, the isolated cells were cultured for 2 days using DMEM/F-12 (Thermo Fisher Scientific, Inc.) supplemented with 10% FBS. Subsequently, three-dimensional culture was performed for 7 days using 3D Ready Atelocollagen (KOKEN CO., LTD.). During three-dimensional culture, 50 µM forskolin (Sigma-Aldrich Co. LLC) and ITS liquid media supplements (Sigma-Aldrich Co. LLC) were added as stimulating agents to some of the wells to form cysts, and a test compound was added at the final concentration of 30 μM. The test compound was also added to other wells at the final concentration of 30 μM. After 7 days of three-dimensional culture, it was fixed with 4% paraformaldehyde (Thermo Fisher Scientific, Inc.), and nucleic acid staining and cell membrane staining were performed with Hoechst 33342 (Thermo Fisher Scientific, Inc.) and CellLight Plasma Membrane-RFP, BacMam 2.0 (Thermo Fisher Scientific, Inc.). Three-dimensional imaging and volume analysis were performed using Operetta CLS and image analysis software Harmony (PerkinElmer Japan G.K.). The inhibition rate was determined by the following formula.

human PiT2 = target: T1, human PiT2 (Homo sapiens, UniProt Q08357); assay: 33PO4 uptake inhibition in CHO cells expressing human PiT2; assay type: cell-based; conditions: CHO cells transiently expressing human PiT2, pH 6.5
T1 construct: expressed in transfected cells; host or cells: CHO cells, transient transfection with Fugene HD
T1 sequence (Q08357 1-652): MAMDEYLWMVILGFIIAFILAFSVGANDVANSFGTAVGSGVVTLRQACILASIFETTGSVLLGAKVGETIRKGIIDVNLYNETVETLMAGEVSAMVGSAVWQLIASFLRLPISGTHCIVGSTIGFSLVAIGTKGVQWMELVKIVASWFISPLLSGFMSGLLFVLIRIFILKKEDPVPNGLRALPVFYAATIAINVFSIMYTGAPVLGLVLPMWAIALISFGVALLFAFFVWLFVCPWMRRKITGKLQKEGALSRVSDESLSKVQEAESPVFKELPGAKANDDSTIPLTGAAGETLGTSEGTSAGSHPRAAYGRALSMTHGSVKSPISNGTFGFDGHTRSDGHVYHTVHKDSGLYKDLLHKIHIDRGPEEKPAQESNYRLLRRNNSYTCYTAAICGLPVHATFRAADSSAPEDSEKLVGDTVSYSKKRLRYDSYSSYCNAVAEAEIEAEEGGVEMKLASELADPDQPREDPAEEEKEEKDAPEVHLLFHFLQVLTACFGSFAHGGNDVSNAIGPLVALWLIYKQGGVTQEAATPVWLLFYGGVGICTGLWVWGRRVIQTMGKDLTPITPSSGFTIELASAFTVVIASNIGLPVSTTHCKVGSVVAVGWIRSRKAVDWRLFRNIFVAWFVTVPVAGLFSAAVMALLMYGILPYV
Protocol: For transient expression, human NaPi-IIb expression plasmids, human PiT1 expression plasmids, human PiT2 expression plasmids, and Fugene HD Transfection (Promega Corporation) were added to CHO cells using a 96-well plate, and the plate was incubated in a C02 incubator for 16 hours. The medium was replaced with buffer A (145 mM choline chloride, 3 mM KCl, 1 mM CaCl2), 0.5 mM MgCl2, 5 mM glucose, 5 mM MES, (pH 6.5)), and then replaced with buffer B (145 mM NaCl, 3 mM KCl, 1 mM CaCl2, 0.5 mM MgCl2, 5 mM glucose, 5 mM MES (pH 6.5)) to which a test compound was added at the final concentration of 0.01, 0.03, 0.1, 0.3, 1, 3, 10, or 30 μM, buffer A to which DMSO was added, or buffer B to which DMSO was added. After a certain time, a 1/20 amount of buffer A containing ^33PO4 (PerkinElmer Japan G. K.) was added and reacted at room temperature. After washing with ice-cooled buffer A, a liquid scintillator (MicroScint™-20, item number 6013621, PerkinElmer Japan G.K.) was added, and the ^33PO4 uptake amount was measured with the top count (Top Count NXT, PerkinElmer Japan G.K.). The inhibition rate was determined by the following formula. Here, a certain time was set to 10 minutes. […]

[2] = system: PC1 conditional knockout mice (PKD model); assay: Suppression of increase in renal volume and decrease in renal function in PC1 conditional knockout mice; assay type: in vivo, mouse
Protocol: The PC1 conditional knockout mice, a PKD model, were used to evaluate the effects of tolvaptan and compound 4 in Test Example 1 on (a) renal volume, (b) body weight, and (c) urine volume in PC1 conditional knockout mouse.
Tamoxifen was orally administered to PC1 conditional knockout mice at a dose of 3 mg/kg for 3 days from day 21 after birth. The PC1 conditional knockout mice (5 weeks of age at the start of this test) were grouped into 3 groups of 15 mice each. Compound 4 or tolvaptan was administered as a single agent to the test compound administration group. The administration period was 16 weeks, and they were administered subcutaneously once daily. Compound 4 was administered at 33-40 mg/kg per dose and tolvaptan was administered at 25-30 mg/kg per dose. Compound 4 and tolvaptan were administered after dissolved in 50% DMSO/50% glycerol. A group of mice to which tamoxifen was not administered was provided as a normal control group (Normal Control) (N=7). The 50% DMSO/50% glycerol was administered to the normal control group and the Vehicle group of PC1 conditional knockout mice at 1 mL/kg.
The left renal volume (renal volume (mL)) of mice was calculated by the following formula using echography 16 weeks after the start of administration of the test compound.
After that, euthanasia treatment was performed. In addition, the body weight (Body weight (g)) of mice was measured every 7 days after the start of administration of the test compound. Furthermore, the volume of urine (Urine volume (mL/day)) was calculated from the specific gravity and measured weight of urine 16 weeks after the start of administration of the test compound.

**Q.** `CCCN([C@H]1CC[C@H](C(=O)[O-])CC1)S(=O)(=O)c1cccc(C(=O)Nc2sc3c(c2C(=O)Nc2ccc(CCCc4ccc(C(=O)[O-])cc4)cc2)CCCC3)c1.[Na+].[Na+]` [Compound 4, Disodium; 4-[3-[4-[[2-[[3-[(4-carboxylatocyclohexyl)-propylsulfamoyl]benzoyl]ami-no]-4,5,6,7-tetrahydro-1-benzothiophene-3-carbonyl]amino]phenyl]pro-pyl]benzoic acid] was tested. Which inhibition at 30 µM [1] did it give?
**A.** 94.4%

**Q.** What about the IC50 (human PiT2) of the same molecule?
**A.** > 30 µM

**Q.** And the “Body weight (weight loss)” value ([2]; 16 weeks administration, compared to tolvaptan)?
**A.** less weight loss

**Q.** And the Urine volume ([2]; 16 weeks after start of administration, compared to tolvaptan)?
**A.** no increase in urine volume

**Q.** What about the “Suppression effect on decrease in renal function” value ([2]; 33-40 mg/kg s.c. once daily, 16 weeks) of the same molecule?
**A.** suppression effect

**Q.** What about the “Suppression effect on increase in renal volume” value ([2]; 33-40 mg/kg s.c. once daily, 16 weeks, left renal volume by echography) of the same molecule?
**A.** suppression effect

Source: patent US20250302833A1, “PHARMACEUTICAL COMPOSITION FOR TREATING OR PREVENTING CYSTIC DISEASE” (CHUGAI SEIYAKU KABUSHIKI KAISHA, priority 2022, published 2025)
